The text below walks through data of US6221386A (priority 1996, dated 2001).

What all share (type): in vivo, BALB/c mice
In assay [1] the test system is Brucella melitensis 16M. The following applies: intramuscular; 1 mg antibiotic/mouse on days 7, 8 and 9; sacrificed day 12.
Assay [2] relates to Brucella melitensis 16M. To be noted: 1 mg/mouse intramuscularly.
The subject of assay [3] is Brucella melitensis 16M. To be noted: 1 mg ciprofloxacin/mouse intramuscularly, 5 × 10^4 CFU.

Read-outs that look alike come from different tables or passages of the source.

As to `O=C(O)c1cn(C2CC2)c2cc(N3CCNCC3)c(F)cc2c1=O` [Ciprofloxacin, ciprofloxacin], the “Spleen counts after antibiotic was given” value with Brucella melitensis 16M [1] is given as 1.3 ± 0.4 × 10^4. Besides, the “B. melitensis 16M counts in spleens 7 days after infection” value is reported as 1.6 ± 0.3 × 10^4 with Brucella melitensis 16M [2] (single dose 1 day after infection (title; head prints before)); 13.0 ± 0.6 × 10^4 in the assay on Brucella melitensis 16M [2] (single dose 2 days after infection (title; head prints before)); 3.5 ± 0.9 × 10^4 in the assay with Brucella melitensis 16M [2] (single dose 3 days after infection (title; head prints before)); 3.9 ± 1.6 × 10^4 with Brucella melitensis 16M [2] (single dose 7 days after infection (title; head prints before)); 1.5 ± 0.3 × 10^4 in the assay on Brucella melitensis 16M [3] (single dose 1 day before infection); 2.8 ± 1.0 × 10^4 in the assay with Brucella melitensis 16M [3] (single dose 2 days before infection). Besides, the “B. melitensis 16M counts in spleens 7 days after infection” value in the assay with Brucella melitensis 16M [3] (single dose 3 days before infection) is 1.4 ± 0.2 × 10^4; in the assay on Brucella melitensis 16M [3] (single dose 7 days before infection), 1.9 ± 0.4 × 10^4.

`CN(C)C1C(=O)C(C(N)=O)=C(O)C2(O)C(=O)C3=C(O)c4c(O)cccc4C(C)(O)C3CC12` (stereo not shown) [Tetracycline, tetracycline]: in the assay on Brucella melitensis 16M [1], the “Spleen counts after antibiotic was given” value is recorded as 4.8 ± 0.8 × 10^3.
